Earlier results on 1 substance are cited in patent publication US20030175883A1, “DNA encoding a mammalian LPA receptor and uses thereof” (priority 1997, published 2003).

The test system of series [1] is LPA binding sites in membranes from 3T3 cells. To be noted: Thomson et al., 1994.
The target of series [2] is LPA binding sites in membranes from rat brain. To be noted: Thomson et al., 1994.

Take 1-acyl-glycerol-3-phosphate [LPA]: the Kd result in series [1] and in series [2] was “low nanomolar range” in each case.
